The text below walks through data of ChEMBL document CHEMBL3137667, “[Drug-induced liver injury; fourteenth updated edition of the bibliographic database of liver injuries and related drugs]” (Gastroenterol Clin Biol, 2004).

Data set [1] in a line: Highest frequency of moderate liver toxicity observed during clinical trials, expressed as a percentage. [column '% BIOL' in source]. To be noted: human.
Data set [2] is described as follows: Highest frequency of acute liver toxicity observed during clinical trials, expressed as a percentage. [column '% AIGUE' in source]. To be noted: human.
A short description of data set [3]: Times to onset, minimal and maximal, observed in the indexed observations. [column 'DELAI' in source]. Conditions: human.
The conditions of data set [4]: human, serum.
For data set [5] the following is noted: human, serum. This is another data set of the same source.
For data set [6] the following is noted: human.
For data set [7] the following is noted: human. The source holds these as a separate data set.
The conditions of data set [8]: human. This is another data set of the same source.
The conditions of data set [9]: human, serum, 4383 h.
For data set [10] the following is noted: human. The source holds these as a separate data set.
For data set [11] the following is noted: human. This is another data set of the same source.
For data set [12] the following is noted: human. The source holds these as a separate data set.
The conditions of data set [13]: human. This is another data set of the same source.
The conditions of data set [14]: human. The source holds these as a separate data set.
For data set [15] the following is noted: human. This is another data set of the same source.
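Throughout, for Hepatotoxicity (association with vascular disease): count of indexed literature references reporting vascular liver injury in humans, e.g. peliosis hepatitis, hepatic veno-occlusive disease or Budd-Chiari syndrome.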
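Throughout, for Hepatotoxicity (benign tumour): value is a count of indexed literature references citing a benign tumour confirmed by histopathology.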
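Throughout, for Hepatotoxicity (choleostasis): human cholestatic liver injury, shown by histopathology or by peak ALT or AST elevation over alkaline phosphatase ratio below 2, value counts indexed literature reports.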
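Throughout, for Hepatotoxicity (chronic liver disease): chronic liver injury confirmed by histopathology or persistently raised serum aminotransferase activity beyond 6 months, value given as the count of indexed literature references.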
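Throughout, for Hepatotoxicity (cirrhosis): value is a count of indexed literature references reporting cirrhosis confirmed by histopathology.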
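Throughout, for Hepatotoxicity (cytolytic): human cytolytic liver injury, shown by histopathology or by a ratio above 5 of peak ALT or AST elevation to alkaline phosphatase elevation, value counts indexed references.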
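Throughout, for Hepatotoxicity (granulomatous hepatitis): value is a count of indexed literature references reporting granulomatous liver disease confirmed by histopathology.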
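Throughout, for Hepatotoxicity (malignant tumour): malignant tumour confirmed by histopathology, value gives the count of indexed literature references reporting it.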
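Throughout, for Hepatotoxicity (severe hepatitis): human clinical data: severe hepatitis, meaning potentially life-threatening liver failure or clinically observed cases, the value counts how many indexed literature references report it.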
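Throughout, for Hepatotoxicity (steatosis): steatosis confirmed by histopathology, value is the count of indexed references.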

Take `CC(=O)Nc1nnc(S(N)(=O)=O)s1` [ACETAZOLAMIDE]: the “Hepatotoxicity (moderate)” value is given as 0% in data set [1] and 0 in [4]. Besides, the figures for the “Hepatotoxicity (acute)” value in data set [2] and in data set [5] were 0% and 1, respectively. In addition, the “Hepatotoxicity (time to onset)” value in data set [3] is recorded as 1 month. The “Hepatotoxicity (cytolytic)” value in data set [6] is listed as 0. Besides, the “Hepatotoxicity (choleostasis)” value in data set [7] is reported as 1. Besides, the “Hepatotoxicity (severe hepatitis)” value in [8] turned out to be 1. Also, in data set [9], the “Hepatotoxicity (chronic liver disease)” value amounted to 0. Besides, the “Hepatotoxicity (cirrhosis)” value in data set [10] was determined as 0. For the same compound, the “Hepatotoxicity (granulomatous hepatitis)” value in [11] was determined as 0. Moreover, the “Hepatotoxicity (association with vascular disease)” value in [12] was determined as 0. Further, in [13], the “Hepatotoxicity (steatosis)” value is 1. Also, in data set [14], the “Hepatotoxicity (malignant tumour)” value came to 0. In data set [15], the “Hepatotoxicity (benign tumour)” value was 0.
For `CN1CCN(C(=S)Nc2ccc(Nc3ccc([N+](=O)[O-])cc3)cc2)CC1` [AMOCARZINE], the entries for the “Hepatotoxicity (moderate)” value in [1] and in data set [4] were 0% and 1, respectively. The “Hepatotoxicity (acute)” value came out at 0% in [2] and 0 in data set [5]. Also, the “Hepatotoxicity (time to onset)” value in data set [3] turned out to be 4 days - 2 months. Also, the “Hepatotoxicity (cytolytic)” value in [6] came out at 0. In addition, the “Hepatotoxicity (choleostasis)” value in [7] was determined as 0. The “Hepatotoxicity (severe hepatitis)” value in data set [8] is 0. The “Hepatotoxicity (chronic liver disease)” value in data set [9] is 0. Besides, the “Hepatotoxicity (cirrhosis)” value in data set [10] was 0. Besides, in [11], the “Hepatotoxicity (granulomatous hepatitis)” value is reported as 0. Also, the “Hepatotoxicity (association with vascular disease)” value in [12] is reported as 0. For the same compound, the “Hepatotoxicity (steatosis)” value in data set [13] stood at 0. In addition, the “Hepatotoxicity (malignant tumour)” value in data set [14] was found to be 0. Moreover, the “Hepatotoxicity (benign tumour)” value in data set [15] is recorded as 0.
On to DALTEPARIN SODIUM, for which the figures for the “Hepatotoxicity (moderate)” value in data set [1] and in data set [4] were 2.6% and 3, respectively. In addition, the “Hepatotoxicity (acute)” value in data set [2] is 0%; in data set [5], 0. The “Hepatotoxicity (time to onset)” value in [3] was found to be 4 days. Besides, the “Hepatotoxicity (cytolytic)” value in data set [6] is on record as 0. Besides, the “Hepatotoxicity (choleostasis)” value in [7] is 0. In addition, in data set [8], the “Hepatotoxicity (severe hepatitis)” value is 0. Also, the “Hepatotoxicity (chronic liver disease)” value in [9] is given as 0. In addition, in data set [10], the “Hepatotoxicity (cirrhosis)” value is listed as 0. Further, the “Hepatotoxicity (granulomatous hepatitis)” value in data set [11] is given as 0. In addition, the “Hepatotoxicity (association with vascular disease)” value in data set [12] is 0. Besides, the “Hepatotoxicity (steatosis)” value in data set [13] was 0. The “Hepatotoxicity (malignant tumour)” value in [14] stood at 0. Further, in data set [15], the “Hepatotoxicity (benign tumour)” value came to 0.
Turning to `O=c1[nH]c(=O)n([C@H]2C[C@H](O)[C@@H](CO)O2)cc1I` [IDOXURIDINE], the “Hepatotoxicity (moderate)” value in data set [1] is on record as 3.6%; in data set [4] it was 3. Also, the “Hepatotoxicity (acute)” value in [2] worked out at 0%; in data set [5], 1. Further, the “Hepatotoxicity (time to onset)” value in data set [3] amounted to 1 week - 2 weeks. The “Hepatotoxicity (cytolytic)” value in data set [6] was 0. The “Hepatotoxicity (choleostasis)” value in [7] amounted to 1. Moreover, the “Hepatotoxicity (severe hepatitis)” value in [8] was found to be 0. In addition, the “Hepatotoxicity (chronic liver disease)” value in data set [9] came to 0. Besides, the “Hepatotoxicity (cirrhosis)” value in [10] came out at 0. The “Hepatotoxicity (granulomatous hepatitis)” value in data set [11] stood at 0. Also, in data set [12], the “Hepatotoxicity (association with vascular disease)” value is listed as 0. The “Hepatotoxicity (steatosis)” value in data set [13] was 0. In [14], the “Hepatotoxicity (malignant tumour)” value amounted to 0. In addition, in data set [15], the “Hepatotoxicity (benign tumour)” value turned out to be 0.
